Experimental data from patent publication US20110143948A1, “MOLECULAR SIGNATURES AND BIOMARKERS ASSOCIATED WITH MELANOMA AND METHODS OF USE THEREOF” (priority 2008, published 2011).

Tested on: ncRNAs (SEQ ID NO 28-89)
Assay: ncRNA arrays of melanocytes, keratinocytes, normal skin, melanoma cell lines and patient samples
Set-up: species or system human
Details: for ncRNA array expression, patient 2: melanoma patient 2 sample compared to normal skin; for ncRNA array expression, patient 3: melanoma patient 3 sample compared to normal skin; for ncRNA array expression, patient 4: melanoma patient 4 sample compared to normal skin; for ncRNA array expression, patient 5: melanoma patient 5 sample compared to normal skin; for ncRNA array expression, patient 6: melanoma patient 6 sample compared to normal skin; for ncRNA array expression, patient 7: melanoma patient 7 sample compared to normal skin; for ncRNA array expression, patient 8: melanoma patient 8 sample compared to normal skin; for ncRNA array expression, patient 9: melanoma patient 9 sample compared to normal skin; for ncRNA array expression, patient 10: melanoma patient 10 sample compared to normal skin; for ncRNA array expression, patient 19: melanoma patient 19 sample compared to normal skin; for ncRNA array expression, patient 20: melanoma patient 20 sample compared to normal skin; for ncRNA array expression, patient 21: melanoma patient 21 sample compared to normal skin; for ncRNA array expression, patient 22: melanoma patient 22 sample compared to normal skin; for ncRNA array expression, patient 23: melanoma patient 23 sample compared to normal skin; for ncRNA array expression, patient 24: melanoma patient 24 sample compared to normal skin; for ncRNA array expression, patient 25: melanoma patient 25 sample compared to normal skin; for ncRNA array expression, patient 26: melanoma patient 26 sample compared to normal skin; for ncRNA array expression, patient 27: melanoma patient 27 sample compared to normal skin; for ncRNA array expression, patient 28: melanoma patient 28 sample compared to normal skin; for ncRNA array expression, patient 29: melanoma patient 29 sample compared to normal skin; for ncRNA array expression, patient 30: melanoma patient 30 sample compared to normal skin
Outline: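 Total RNA from melanocytes, keratinocytes, normal human skin, melanoma cell lines and melanoma patient samples was profiled on an array of >10,000 putative (>200 nt) human and mouse ncRNAs plus RefSeq mRNA probes. Expression was compared with melanocytes or normal skin, keratinocyte signatures were subtracted, and hits were validated by qRT-PCR and Northern blot.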

Substance | ncRNA array expression, patient 2 | ncRNA array expression, patient 3 | ncRNA array expression, patient 4 | ncRNA array expression, patient 5 | ncRNA array expression, patient 6 | ncRNA array expression, patient 7 | ncRNA array expression, patient 8 | ncRNA array expression, patient 9 | ncRNA array expression, patient 10 | ncRNA array expression, patient 19 | ncRNA array expression, patient 20 | ncRNA array expression, patient 21 | ncRNA array expression, patient 22 | ncRNA array expression, patient 23 | ncRNA array expression, patient 24 | ncRNA array expression, patient 25 | ncRNA array expression, patient 26 | ncRNA array expression, patient 27 | ncRNA array expression, patient 28 | ncRNA array expression, patient 29 | further results
SEQ ID NO 56 (AAAAAATGAGGCAATCTCATCCCGAAACTATTTAAAACTACTCTCCTCTCTCTTGATAAA; listed as DNA, chemistry not given here; listed as Homo sapiens) | −2.014 | −1.535 | −1.64 | −1.4872 | −1.129 | −1.282 | −1.314 | −1.818 | −2.922 | −1.228 | −1.698 | −1.986 | −1.277 | −1.277 | −1.273 | −2.407 | −2.501 | −1.97 | −1.952 | −1.912 | ncRNA array expression, patient 30: −0.5599
SEQ ID NO 57 (TTGTTGTTTTGGGAGATACCCTGTTTAGCCTGAAAGGATTGAGATACTGTAATTGCTATG; listed as DNA, chemistry not given here; listed as Homo sapiens) | 1.808 | 2.081 | 1.613 | 2.211 | 1.68 | 0.6099 | 1.985 | 0.645 | 0.5023 | 0.2628 | 0.1922 | 0.9386 | 1.473 | 1.122 | 0.5436 | 1.559 | 1.989 | 1.446 | 1.064 | 0.4459 | ncRNA array expression, patient 30: −0.5305
SEQ ID NO 58 (ATTTATTTGACTCTAAAATGACAATATAACAACTATAAGGAATTGATATGATGTCCTTAC; listed as DNA, chemistry not given here; listed as Homo sapiens) | −1.675 | −1.723 | −0.4325 | −1.707 | −1.802 | −1.2619 | −1.825 | −1.569 | −1.223 | −1.471 | −1.134 | −1.719 | −1.28 | −1.756 | −1.757 | −1.52 | −1.463 | −1.595 | −1.708 | −1.543 | ncRNA array expression, patient 30: −1.631
SEQ ID NO 59 (TGTGCAGCAGTATCAAAGGTCCTTAAATTCTCAACAATGAAGGAAAAACAAAAACCCATT; listed as DNA, chemistry not given here; listed as Homo sapiens) | −0.9339 | −1.02 | −1.168 | −1.255 | −1.212 | −0.9325 | −0.9937 | −1.258 | −0.9688 | −1.202 | −1.14 | −1.263 | −0.5383 | −1.165 | −1.154 | −0.9916 | −0.8776 | −1.161 | −1.232 | −1.077 | ncRNA array expression, patient 30: −1.04
SEQ ID NO 60 (ACTAACAGCACTGGAGGGTGTAGTGTTTCCTACTTTATGGATGAGTGTACTGTGGGCTTC; listed as DNA, chemistry not given here; listed as Homo sapiens) | 2.776 | 2.279 | 2.327 | 0.8655 | −1.218 | 2.958 | 0.3154 | 1.739 | 2.002 | 0.3888 | 2.119 | 0.7491 | 3.236 | 1.416 | 1.295 | 1.226 | 1.537 | 1.485 | 0.6983 | 1.398 | ncRNA array expression, patient 30: 0.02973
SEQ ID NO 61 (CATACATTGCCCTCACTAATCAATGGACATTTCAGCATTTCATTACTAATTTTGAGAGAA; listed as DNA, chemistry not given here; listed as Homo sapiens) | 1.244 | 1.117 | 1.12 | 3.917 | 0.992 | 2.069 | 1.86 | 1.694 | 3.678 | 0.6865 | −0.03568 | 1.984 | −0.1143 | 0.5527 | 3.802 | 2.349 | 2.817 | 1.264 | 2.585 | 3.112 | ncRNA array expression, patient 30: 0.254
SEQ ID NO 62 (AATCGTTAATATCATTGATATTAAGTAATTTCCCCACTCTGAGTGAATACTTTGATGATG; listed as DNA, chemistry not given here; listed as Homo sapiens) | 1.565 | 1.466 | 3.47 | 1.994 | 0.5751 | 2.152 | 0.2609 | 0.5801 | 1.264 | 1.414 | 1.836 | 0.6984 | 0.4968 | −0.5784 | 3.5 | 3.363 | 2.394 | 1.855 | 1.418 | 1.3702 | ncRNA array expression, patient 30: −1.545
SEQ ID NO 63 (CTCACACGCACCCTTTCACTGTTTCTTAGTAATTTGTTTGTCTACAGACACAGACGGGAA; listed as DNA, chemistry not given here; listed as Homo sapiens) | −1.694 | −1.565 | −1.396 | −1.315 | −0.5921 | −1.305 | −1.26 | −1.429 | −1.417 | −1.154 | −1.232 | −1.397 | −0.3562 | −0.04699 | −1.093 | −2.099 | −2.008 | −1.525 | −1.601 | −1.862 | ncRNA array expression, patient 30: 1.622
